Measurements as given in US10457707B2, “Substituted urea depsipeptide analogs as activators of the CLPP endopeptidase” (priority 2015, dated 2019).
Converted amounts (≈) assume the structure as drawn. Where two headings read alike, the source gives them in different places. *1 amine or outer side, *2 acyl side, *3 side chain or, on linkers, in order; H or OH if unused. Where a SMILES comes first, the peptide text is derived from it. Bridges are numbered along the chain shown (N, C = ends). [ ]: non-standard residue; d: D form. The star is where a group is joined. Piperazine(2S-CO,4-Me) = CN1CCN[C@H](C(=O)O)C1; NH(1,3-benzodioxol-5-yl) = c1cc2c(cc1N*)OCO2; Phe(3,5-F2) = N[C@@H](Cc1cc(F)cc(F)c1)C(=O)O; NH(1-Me-indolin-5-yl) = CN1CCc2cc(N*)ccc21; NH(4-OCF3-phenyl) = FC(F)(F)Oc1ccc(N*)cc1; Morpholine(3S-CO) = O=C(O)[C@@H]1COCCN1; Pro(4S-Me) = C[C@@H]1CN[C@H](C(=O)O)C1; NH(4-Cl-2-F-phenyl) = Fc1cc(Cl)ccc1N*; Pro(4R-Me) = C[C@H]1CN[C@H](C(=O)O)C1; NMeaThr = CN[C@H](C(=O)O)[C@H](C)O; Hyp = O=C(O)[C@@H]1C[C@@H](O)CN1; NH(4-Et-phenyl) = CCc1ccc(N*)cc1; NH(4-Me-phenyl) = Cc1ccc(N*)cc1; aThr = C[C@H](O)[C@H](N)C(=O)O; Pip = O=C(O)[C@@H]1CCCCN1; X4 = c1cc2c(cc1N*)CCC2; CO = O=C([*:1])[*:2]

Assays:
Sa-ClpP = molecular target: T1, Sa-ClpP (Staphylococcus aureus, UniProt Q2G036); assay: Sa-ClpP casein-BODIPY ClpP activation assay, method variant not marked in Table 5; format: biochemical, S. aureus
T1 construct: made in house; host or cells: E. coli BL21(DE3)
T1 sequence (Q2G036 1-195): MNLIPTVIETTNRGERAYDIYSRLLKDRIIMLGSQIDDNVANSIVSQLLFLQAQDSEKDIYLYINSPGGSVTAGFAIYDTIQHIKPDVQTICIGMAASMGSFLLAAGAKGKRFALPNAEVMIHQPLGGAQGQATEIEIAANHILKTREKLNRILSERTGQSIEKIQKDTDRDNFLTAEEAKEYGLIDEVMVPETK
Method in brief: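 EC50 for activation derived by dose-response fitting of casein digestion rates, run in triplicate. Conditions: 37° C, pH 8 buffer with 200 mM KCl and 1 mM TCEP, 10 μM Sa-ClpP, 25 μg/ml BODIPY FL casein, compound at 0-1000 μM; signal at 485/528 nm followed 45 min.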

[1] = system: Staphylococcus aureus, USA 300 wherein ClpP is inactivated; assay: Minimal inhibitory concentration assay; format: cell-based
Method in brief: (§1)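 MIC is the lowest concentration stopping visible growth after overnight aerobic culture at 37 °C, per CLSI microbroth dilution (about 10^5 cfu/mL; two-fold series, top final 200 μM). ClpP-inactivated S. aureus USA 300 tested alongside parent strain to probe ClpP-mediated killing.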

[2] = system: Staphylococcus aureus, USA 300; assay: Minimal inhibitory concentration assay; format: cell-based; settings: USA300, read-out: Minimal Inhibitory Concentrations S. aureus USA 300
Method in brief: as §1

[3] = values without ** or † mark, assay variant not stated, read-out: ClpP Activation EC50

Row | SMILES | EC50 (Sa-ClpP) [nM] | Minimal Inhibitory Concentrations S. aureus USA 300 ΔClpP [1] [µM] | MIC [2] [µM] | EC50 (Sa-ClpP; [3]) [nM]
1 | CCc1ccc(NC(=O)N[C@@H](Cc2cc(F)cc(F)c2)C(=O)N[C@@H]2C(=O)N3C[C@H](O)C[C@H]3C(=O)N3CCCC[C@H]3C(=O)N[C@@H](C)C(=O)N3C[C@H](C)C[C@H]3C(=O)O[C@H]2C)cc1 [Compound 211, (S)-3-(3,5-difluorophenyl)-2-(3-(4-ethylphenyl)ureido)-N-((2R,6S,8aS,14aS,16R,20S,21S,23aS)-16-hydroxy-2,6,21-trimethyl-5,8,14,19,23-pentaoxooctadecahydro-1H,5H,14H,19H-pyrido[2,1-i]dipyrrolo[2,1-c:2′,1′-l][1]oxa[4,7,10,13]tetraazacyclohexadecin-20-yl)propanamide] ({NH(4-Et-phenyl)-CO}-[Phe(3,5-F2)][aThr][Hyp][Pip]A[Pro(4R-Me)]; ester 2-C) | 500 ± 10 | >200 | 0.04 (≈ 0.0335 µg/mL) | 
2 | C[C@@H]1C[C@H]2C(=O)O[C@@H](C)[C@H](NC(=O)[C@H](Cc3cc(F)cc(F)c3)NC(=O)Nc3ccc4c(c3)OCO4)C(=O)N3C[C@H](O)C[C@H]3C(=O)N3CCOC[C@H]3C(=O)N[C@@H](C)C(=O)N2C1 [Compound 319, (S)-2-(3-(benzo[d][1,3]dioxol-5-yl)ureido)-3-(3,5-difluorophenyl)-N-((6aS,8R,12S,13S,15aS,17R,21S,23aS)-8-hydroxy-13,17,21-trimethyl-6,11,15,20,23-pentaoxooctadecahydro-6H,11H,15H-[1,4]oxazino[3,4-i]dipyrrolo[2,1-c:2′,1′-l][1]oxa[4,7,10,13]tetraazacyclo-hexadecin-12-yl)propanamide] ({NH(1,3-benzodioxol-5-yl)-CO}-[Phe(3,5-F2)][aThr][Hyp][Morpholine(3S-CO)]A[Pro(4R-Me)]; ester 2-C) | 450 ± 40 | 25 | 25 (≈ 21.4 µg/mL) | 
3 | C[C@@H]1C[C@H]2C(=O)O[C@@H](C)[C@H](NC(=O)[C@H](Cc3cc(F)cc(F)c3)NC(=O)Nc3ccc4c(c3)CCN4C)C(=O)N3CCC[C@H]3C(=O)N3CCOC[C@H]3C(=O)N[C@@H](C)C(=O)N2C1 [Compound 312, (S)-3-(3,5-difluorophenyl)-2-(3-(1-methylindolin-5-yl)ureido)-N-((6aS,12S,13S,15aS,17R,21S,23aS)-13,17,21-trimethyl-6,11,15,20,23-pentaoxooctadecahydro-6H,11H,15H-[1,4]oxazino[3,4-i]dipyrrolo[2,1-c:2′,1′-l][1]oxa[4,7,10,13]tetraazacyclo-hexadecin-12-yl)propanamide] ({NH(1-Me-indolin-5-yl)-CO}-[Phe(3,5-F2)][aThr]P[Morpholine(3S-CO)]A[Pro(4R-Me)]; ester 2-C) |  | >20 | 0.156 (≈ 0.133 µg/mL) | 440 ± 20
4 | Cc1ccc(NC(=O)N[C@@H](Cc2cc(F)cc(F)c2)C(=O)N[C@@H]2C(=O)N3CCC[C@H]3C(=O)N3CCCC[C@H]3C(=O)N[C@@H](C)C(=O)N3C[C@H](C)C[C@H]3C(=O)O[C@H]2C)cc1 [Compound 209, (S)-3-(3,5-difluorophenyl)-2-(3-(p-tolyl)ureido)-N-((2R,6S,8aS,14aS,20S,21S,23aS)-2,6,21-trimethyl-5,8,14,19,23-pentaoxooctadecahydro-1H,5H,14H,19H-pyrido[2,1-i]dipyrrolo[2,1-c:2′,1′-l][1]oxa[4,7,10,13]tetraazacyclohexadecin-20-yl)propanamide] ({NH(4-Me-phenyl)-CO}-[Phe(3,5-F2)][aThr]P[Pip]A[Pro(4R-Me)]; ester 2-C) |  | 100 | 0.05 (≈ 0.0404 µg/mL) | 360 ± 30
5 | C[C@H]1C[C@H]2C(=O)O[C@@H](C)[C@H](NC(=O)[C@H](Cc3cc(F)cc(F)c3)NC(=O)Nc3ccc(OC(F)(F)F)cc3)C(=O)N3CCC[C@H]3C(=O)N(C)[C@@H]([C@H](C)O)C(=O)N[C@@H](C)C(=O)N2C1 [Compound 203, (S)-3-(3,5-difluorophenyl)-N-((2S,6S,9S,11aS,17S,18S,20aS)-9-((S)-1-hydroxyethyl)-2,6,10,18-tetramethyl-5,8,11,16,20-pentaoxohexadecahydro-1H,5H,16H-dipyrrolo[2,1-c:2′,1′-l][1]oxa[4,7,10,13]tetraazacyclohexadecin-17-yl)-2-(3-(4-(trifluoromethoxy)phenyl)ureido)propanamide] ({NH(4-OCF3-phenyl)-CO}-[Phe(3,5-F2)][aThr]P[NMeaThr]A[Pro(4S-Me)]; ester 2-C) |  | 50 | 0.098 (≈ 0.0864 µg/mL) | 430 ± 10
6 | Cc1ccc(NC(=O)N[C@@H](Cc2cc(F)cc(F)c2)C(=O)N[C@@H]2C(=O)N3CCC[C@H]3C(=O)N3CCOC[C@H]3C(=O)N[C@@H](C)C(=O)N3C[C@H](C)C[C@H]3C(=O)O[C@H]2C)cc1 [Compound 210, (S)-3-(3,5-difluorophenyl)-2-(3-(p-tolyl)ureido)-N-((6aS,12S,13S,15aS,17R,21S,23aS)-13,17,21-trimethyl-6,11,15,20,23-pentaoxooctadecahydro-6H,11H,15H-[1,4]oxazino[3,4-i]dipyrrolo[2,1-c:2′,1′-l][1]oxa[4,7,10,13]tetraazacyclohexadecin-12-yl)propanamide] ({NH(4-Me-phenyl)-CO}-[Phe(3,5-F2)][aThr]P[Morpholine(3S-CO)]A[Pro(4R-Me)]; ester 2-C) |  | >200 | 0.006 (≈ 0.00486 µg/mL) | 400 ± 10
7 | C[C@@H]1C[C@H]2C(=O)OC[C@H](NC(=O)[C@H](Cc3cc(F)cc(F)c3)NC(=O)Nc3ccc(Cl)cc3F)C(=O)N3CCC[C@H]3C(=O)N3CCN(C)C[C@H]3C(=O)N[C@@H](C)C(=O)N2C1 [Compound 330, (S)-2-(3-(4-chloro-2-fluorophenyl)ureido)-3-(3,5-difluorophenyl)-N-((6aS,12S,15aS,17R,21S,23aS)-2,17,21-trimethyl-6,11,15,20,23-pentaoxooctadecahydro-2H,6H,11H,15H-pyrazino[2,1-i]dipyrrolo[2,1-c:2′,1′-l][1]oxa[4,7,10,13]tetraazacyclohexadecin-12-yl)propanamide] ({NH(4-Cl-2-F-phenyl)-CO}-[Phe(3,5-F2)]SP[Piperazine(2S-CO,4-Me)]A[Pro(4R-Me)]; ester 2-C) | 290 ± 20 | >20 | 0.156 (≈ 0.132 µg/mL) | 
8 | C[C@@H]1C[C@H]2C(=O)O[C@@H](C)[C@H](NC(=O)[C@H](Cc3cc(F)cc(F)c3)NC(=O)Nc3ccc4c(c3)CCC4)C(=O)N3CCC[C@H]3C(=O)N3CCCC[C@H]3C(=O)N[C@@H](C)C(=O)N2C1 [Compound 302, (S)-3-(3,5-difluorophenyl)-2-(3-(2,3-dihydro-1H-INDEN-5-yl)ureido)-N-((2R,6S,8aS,14aS,20S,21S,23aS)-2,6,21-trimethyl-5,8,14,19,23-pentaoxooctadecahydro-1H,5H,14H,19H-pyrido[2,1-i]dipyrrolo[2,1-c:2′,1′-l][1]oxa[4,7,10,13]tetraazacyclohexadecin-20-yl)propanamide] ({X4-CO}-[Phe(3,5-F2)][aThr]P[Pip]A[Pro(4R-Me)]; ester 2-C) |  | >20 | 0.059 (≈ 0.0492 µg/mL) | 480 ± 10
9 | Cc1ccc(NC(=O)N[C@@H](Cc2cc(F)cc(F)c2)C(=O)N[C@@H]2C(=O)N3CCC[C@H]3C(=O)N(C)[C@@H]([C@H](C)O)C(=O)N[C@@H](C)C(=O)N3C[C@H](C)C[C@H]3C(=O)O[C@H]2C)cc1 [Compound 208, (S)-3-(3,5-difluorophenyl)-N-((2R,6S,9S,11aS,17S,18S,20aS)-9-((S)-1-hydroxyethyl)-2,6,10,18-tetramethyl-5,8,11,16,20-pentaoxohexadecahydro-1H,5H,16H-dipyrrolo[2,1-c:2′,1′-l][1]oxa[4,7,10,13]tetraazacyclohexadecin-17-yl)-2-(3-(p-tolyl)ureido)propanamide] ({NH(4-Me-phenyl)-CO}-[Phe(3,5-F2)][aThr]P[NMeaThr]A[Pro(4R-Me)]; ester 2-C) |  | 200 | 0.1 (≈ 0.0812 µg/mL) | 480 ± 30
10 | Cc1ccc(NC(=O)N[C@@H](Cc2cc(F)cc(F)c2)C(=O)N[C@@H]2C(=O)N3CCC[C@H]3C(=O)N(C)[C@@H]([C@H](C)O)C(=O)N[C@@H](C)C(=O)N3C[C@@H](C)C[C@H]3C(=O)O[C@H]2C)cc1 [Compound 202, (S)-3-(3,5-difluorophenyl)-N-((2S,6S,9S,11aS,17S,18S,20aS)-9-((S)-1-hydroxyethyl)-2,6,10,18-tetramethyl-5,8,11,16,20-pentaoxohexadecahydro-1H,5H,16H-dipyrrolo[2,1-c:2′,1′-L][1]oxa[4,7,10,13]tetraazacyclohexadecin-17-yl)-2-(3-(p-tolyl)ureido)propanamide] ({NH(4-Me-phenyl)-CO}-[Phe(3,5-F2)][aThr]P[NMeaThr]A[Pro(4S-Me)]; ester 2-C) |  | 200 | 0.195 (≈ 0.158 µg/mL) | 480 ± 30
